In ChEMBL document CHEMBL5696441 (Nat Chem Biol, 2011):

Columns and labels:
[1] = target: Mitogen-activated protein kinase 3 (Homo sapiens) (UniProt P27361); test: Inhibition of human ERK1 assessed as residual activity at 1 uM using RBER-CHKtide as substrate in presence of 33P-ATP by ProQinase assay relative to control
[2] = target: G protein-coupled receptor kinase 4 (Homo sapiens) (UniProt P32298); test: Inhibition of human GRK4 assessed as residual activity at 1 uM using casein as substrate in presence of 33P-ATP by ProQinase assay relative to control
[3] = target: Discoidin domain-containing receptor 2 (Homo sapiens) (UniProt Q16832); test: Inhibition of DDR2 (unknown origin) assessed as remaining activity at 1 uM by Kinome scan method relative to control
[4] = target: Fibroblast growth factor receptor 4 (Homo sapiens) (UniProt P22455); test: Inhibition of FGFR4 (unknown origin) assessed as remaining activity at 1 uM by Kinome scan method relative to control
Sequence of Fibroblast growth factor receptor 4 (Homo sapiens) (P22455 22-802 limits assumed): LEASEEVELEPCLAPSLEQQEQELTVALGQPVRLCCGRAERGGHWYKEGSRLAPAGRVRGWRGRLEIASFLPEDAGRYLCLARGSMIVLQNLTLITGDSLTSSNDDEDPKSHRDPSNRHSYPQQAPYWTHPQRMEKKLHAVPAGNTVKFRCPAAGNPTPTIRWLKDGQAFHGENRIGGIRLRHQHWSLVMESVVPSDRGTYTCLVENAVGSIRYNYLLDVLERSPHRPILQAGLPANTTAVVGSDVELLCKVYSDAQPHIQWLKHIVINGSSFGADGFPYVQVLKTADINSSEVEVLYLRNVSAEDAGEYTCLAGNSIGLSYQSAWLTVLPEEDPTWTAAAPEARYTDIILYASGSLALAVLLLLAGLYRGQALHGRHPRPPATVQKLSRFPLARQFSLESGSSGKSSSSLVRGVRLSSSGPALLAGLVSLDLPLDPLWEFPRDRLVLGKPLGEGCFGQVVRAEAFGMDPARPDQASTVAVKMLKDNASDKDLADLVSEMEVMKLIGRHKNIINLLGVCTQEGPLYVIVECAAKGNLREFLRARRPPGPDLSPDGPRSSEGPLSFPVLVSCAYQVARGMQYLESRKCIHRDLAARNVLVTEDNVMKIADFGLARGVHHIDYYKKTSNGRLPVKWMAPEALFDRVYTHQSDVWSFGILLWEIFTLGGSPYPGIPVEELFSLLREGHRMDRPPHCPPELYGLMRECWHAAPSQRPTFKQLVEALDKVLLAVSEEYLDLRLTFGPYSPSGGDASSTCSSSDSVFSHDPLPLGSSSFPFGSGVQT

[5] = target: Macrophage colony-stimulating factor 1 receptor (Homo sapiens) (UniProt P07333); test: Inhibition of CSF1R (unknown origin) assessed as remaining activity at 1 uM by Kinome scan method relative to control
[6] = target: Mitogen-activated protein kinase kinase kinase 3 (Homo sapiens) (UniProt Q99759); test: Inhibition of MAP3K3 (unknown origin) assessed as remaining activity at 1 uM by Kinome scan method relative to control
[7] = target: Phosphorylase b kinase gamma catalytic chain, skeletal muscle/heart isoform (Homo sapiens) (UniProt Q16816); test: Inhibition of human PHKG1 assessed as residual activity at 1 uM using 3xChocktide-PKC as substrate in presence of 33P-ATP by ProQinase assay relative to control
[8] = target: Dual specificity protein kinase CLK1 (Homo sapiens) (UniProt P49759); test: Inhibition of human CLK1 assessed as residual activity at 1 uM using autophos as substrate in presence of 33P-ATP by ProQinase assay relative to control
[9] = test system: Epidermal growth factor receptor (Homo sapiens), P00533 [L858R]; test: Inhibition of EGFR L858R mutant (unknown origin) assessed as remaining activity at 1 uM by Kinome scan method relative to control
[10] = target: Wee1-like protein kinase (Homo sapiens) (UniProt P30291); test: Inhibition of human WEE1 assessed as residual activity at 1 uM using poly(Ala,Glu,Lys,Tyr)6:2:5:1 as substrate in presence of 33P-ATP by ProQinase assay relative to control
[11] = target: Serine/threonine-protein kinase PAK 1 (Homo sapiens) (UniProt Q13153); test: Inhibition of human PAK1 assessed as residual activity at 1 uM using bio-4xCHKT as substrate in presence of 33P-ATP by ProQinase assay relative to control
[12] = Anti-inflammatory activity against human derived medium respond PBMC cells assessed as inhibition in stimulated IL-1alpha cytokine release incubated for 2 hrs in the presence of LPS/SEB/aCD28 by Luminex based sandwich immunoassay; type: functional, cell-based
[13] = target: Ephrin type-A receptor 8 (Homo sapiens) (UniProt P29322); test: Inhibition of EPHA8 (unknown origin) assessed as remaining activity at 1 uM by Kinome scan method relative to control
[14] = target: Serine/threonine-protein kinase ULK3 (Homo sapiens) (UniProt Q6PHR2); test: Inhibition of ULK3 (unknown origin) assessed as remaining activity at 1 uM by Kinome scan method relative to control
Sequence of Serine/threonine-protein kinase ULK3 (Homo sapiens) (Q6PHR2 whole entry): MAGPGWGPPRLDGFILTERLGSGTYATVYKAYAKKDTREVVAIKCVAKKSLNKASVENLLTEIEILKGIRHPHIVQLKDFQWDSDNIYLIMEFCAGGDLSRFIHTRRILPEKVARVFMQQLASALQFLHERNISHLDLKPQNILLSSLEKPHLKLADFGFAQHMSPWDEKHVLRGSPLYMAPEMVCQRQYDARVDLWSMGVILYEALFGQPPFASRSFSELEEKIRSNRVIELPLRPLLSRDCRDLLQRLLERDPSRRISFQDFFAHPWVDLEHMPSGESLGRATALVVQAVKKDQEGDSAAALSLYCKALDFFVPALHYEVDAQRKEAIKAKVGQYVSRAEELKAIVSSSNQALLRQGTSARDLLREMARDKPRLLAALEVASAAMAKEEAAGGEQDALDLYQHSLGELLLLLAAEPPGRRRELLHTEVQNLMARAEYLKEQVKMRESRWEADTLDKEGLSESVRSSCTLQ

[15] = target: CYP1A (Homo sapiens, UniProt P04798+P05177); test: Inhibition of CYP1A (unknown origin) at 10 uM relative to control; type: ADME, protein assay
[16] = target: LIM domain kinase 1 (Homo sapiens) (UniProt P53667); test: Inhibition of human LIMK1 assessed as residual activity at 1 uM using CFL2 as substrate in presence of 33P-ATP by ProQinase assay relative to control
[17] = target: Receptor tyrosine-protein kinase erbB-3 (Homo sapiens) (UniProt P21860); test: Inhibition of ERBB3 (unknown origin) assessed as remaining activity at 1 uM by Kinome scan method relative to control
[18] = target: Tyrosine-protein kinase CSK (Homo sapiens) (UniProt P41240); test: Inhibition of CSK (unknown origin) assessed as remaining activity at 1 uM by Kinome scan method relative to control
[19] = target: Serine/threonine-protein kinase 16 (Homo sapiens) (UniProt O75716); test: Inhibition of human TSF1 assessed as residual activity at 1 uM using casein as substrate in presence of 33P-ATP by ProQinase assay relative to control
Sequence of Serine/threonine-protein kinase 16 (Homo sapiens) (O75716 whole entry): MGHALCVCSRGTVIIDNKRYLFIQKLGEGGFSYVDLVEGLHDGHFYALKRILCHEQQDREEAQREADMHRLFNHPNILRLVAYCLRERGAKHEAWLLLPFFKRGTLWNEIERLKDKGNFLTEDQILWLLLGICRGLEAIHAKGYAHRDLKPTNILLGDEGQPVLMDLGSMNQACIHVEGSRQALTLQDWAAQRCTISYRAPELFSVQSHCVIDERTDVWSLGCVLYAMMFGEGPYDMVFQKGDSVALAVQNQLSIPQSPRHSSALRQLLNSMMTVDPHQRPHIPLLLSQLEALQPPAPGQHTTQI

[20] = target: AP2-associated protein kinase 1 (Homo sapiens) (UniProt Q2M2I8); test: Inhibition of AAK1 (unknown origin) assessed as remaining activity at 1 uM by Kinome scan method relative to control
[21] = target: Uncharacterized serine/threonine-protein kinase SBK3 (Homo sapiens) (UniProt P0C264); test: Inhibition of SgK110 (unknown origin) assessed as remaining activity at 1 uM by Kinome scan method relative to control
[22] = target: Tyrosine-protein kinase Fyn (Homo sapiens) (UniProt P06241); test: Inhibition of FYN (unknown origin) assessed as remaining activity at 1 uM by Kinome scan method relative to control
[23] = target: Serine/threonine-protein kinase Chk2 (Homo sapiens) (UniProt O96017); test: Inhibition of human CHK2 assessed as residual activity at 1 uM using bio-4xCHKT as substrate in presence of 33P-ATP by ProQinase assay relative to control
[24] = target: Calcium/calmodulin-dependent protein kinase type II subunit beta (Homo sapiens) (UniProt Q13554); test: Inhibition of human CAMK2B assessed as residual activity at 1 uM using RBER-CHKtide as substrate in presence of 33P-ATP by ProQinase assay relative to control
Sequence of Calcium/calmodulin-dependent protein kinase type II subunit beta (Homo sapiens) (Q13554 whole entry): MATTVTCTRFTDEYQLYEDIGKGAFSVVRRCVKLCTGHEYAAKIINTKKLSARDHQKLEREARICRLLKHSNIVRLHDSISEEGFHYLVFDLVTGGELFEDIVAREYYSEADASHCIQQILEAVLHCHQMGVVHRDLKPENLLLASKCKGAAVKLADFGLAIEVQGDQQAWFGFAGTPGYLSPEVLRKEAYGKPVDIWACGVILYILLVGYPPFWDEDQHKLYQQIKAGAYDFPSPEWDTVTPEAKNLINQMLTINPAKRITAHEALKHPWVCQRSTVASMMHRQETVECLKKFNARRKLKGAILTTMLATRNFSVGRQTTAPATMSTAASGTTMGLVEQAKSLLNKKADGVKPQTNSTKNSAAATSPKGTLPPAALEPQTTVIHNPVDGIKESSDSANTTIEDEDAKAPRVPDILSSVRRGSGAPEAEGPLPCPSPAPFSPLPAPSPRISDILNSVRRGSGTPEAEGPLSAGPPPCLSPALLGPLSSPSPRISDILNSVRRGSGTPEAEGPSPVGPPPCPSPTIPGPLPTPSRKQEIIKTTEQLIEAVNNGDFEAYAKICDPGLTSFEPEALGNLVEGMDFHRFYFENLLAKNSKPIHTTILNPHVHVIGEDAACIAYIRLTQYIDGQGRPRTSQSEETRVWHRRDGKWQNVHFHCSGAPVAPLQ

[25] = target: Glycogen synthase kinase-3 alpha (Homo sapiens) (UniProt P49840); test: Inhibition of human GSK3alpha assessed as residual activity at 1 uM using SUPT5 754-837 as substrate in presence of 33P-ATP by ProQinase assay relative to control
[26] = test system: Epidermal growth factor receptor (Homo sapiens), P00533 [UNDEFINED MUTATION]; test: Inhibition of human EGFR d747-752/P753S mutant assessed as residual activity at 1 uM using PolyEY as substrate in presence of 33P-ATP by ProQinase assay relative to control
[27] = target: Myosin-IIIa (Homo sapiens) (UniProt Q8NEV4); test: Inhibition of MYO3A (unknown origin) assessed as remaining activity at 1 uM by Kinome scan method relative to control
Sequence of Myosin-IIIa (Homo sapiens) (Q8NEV4 whole entry): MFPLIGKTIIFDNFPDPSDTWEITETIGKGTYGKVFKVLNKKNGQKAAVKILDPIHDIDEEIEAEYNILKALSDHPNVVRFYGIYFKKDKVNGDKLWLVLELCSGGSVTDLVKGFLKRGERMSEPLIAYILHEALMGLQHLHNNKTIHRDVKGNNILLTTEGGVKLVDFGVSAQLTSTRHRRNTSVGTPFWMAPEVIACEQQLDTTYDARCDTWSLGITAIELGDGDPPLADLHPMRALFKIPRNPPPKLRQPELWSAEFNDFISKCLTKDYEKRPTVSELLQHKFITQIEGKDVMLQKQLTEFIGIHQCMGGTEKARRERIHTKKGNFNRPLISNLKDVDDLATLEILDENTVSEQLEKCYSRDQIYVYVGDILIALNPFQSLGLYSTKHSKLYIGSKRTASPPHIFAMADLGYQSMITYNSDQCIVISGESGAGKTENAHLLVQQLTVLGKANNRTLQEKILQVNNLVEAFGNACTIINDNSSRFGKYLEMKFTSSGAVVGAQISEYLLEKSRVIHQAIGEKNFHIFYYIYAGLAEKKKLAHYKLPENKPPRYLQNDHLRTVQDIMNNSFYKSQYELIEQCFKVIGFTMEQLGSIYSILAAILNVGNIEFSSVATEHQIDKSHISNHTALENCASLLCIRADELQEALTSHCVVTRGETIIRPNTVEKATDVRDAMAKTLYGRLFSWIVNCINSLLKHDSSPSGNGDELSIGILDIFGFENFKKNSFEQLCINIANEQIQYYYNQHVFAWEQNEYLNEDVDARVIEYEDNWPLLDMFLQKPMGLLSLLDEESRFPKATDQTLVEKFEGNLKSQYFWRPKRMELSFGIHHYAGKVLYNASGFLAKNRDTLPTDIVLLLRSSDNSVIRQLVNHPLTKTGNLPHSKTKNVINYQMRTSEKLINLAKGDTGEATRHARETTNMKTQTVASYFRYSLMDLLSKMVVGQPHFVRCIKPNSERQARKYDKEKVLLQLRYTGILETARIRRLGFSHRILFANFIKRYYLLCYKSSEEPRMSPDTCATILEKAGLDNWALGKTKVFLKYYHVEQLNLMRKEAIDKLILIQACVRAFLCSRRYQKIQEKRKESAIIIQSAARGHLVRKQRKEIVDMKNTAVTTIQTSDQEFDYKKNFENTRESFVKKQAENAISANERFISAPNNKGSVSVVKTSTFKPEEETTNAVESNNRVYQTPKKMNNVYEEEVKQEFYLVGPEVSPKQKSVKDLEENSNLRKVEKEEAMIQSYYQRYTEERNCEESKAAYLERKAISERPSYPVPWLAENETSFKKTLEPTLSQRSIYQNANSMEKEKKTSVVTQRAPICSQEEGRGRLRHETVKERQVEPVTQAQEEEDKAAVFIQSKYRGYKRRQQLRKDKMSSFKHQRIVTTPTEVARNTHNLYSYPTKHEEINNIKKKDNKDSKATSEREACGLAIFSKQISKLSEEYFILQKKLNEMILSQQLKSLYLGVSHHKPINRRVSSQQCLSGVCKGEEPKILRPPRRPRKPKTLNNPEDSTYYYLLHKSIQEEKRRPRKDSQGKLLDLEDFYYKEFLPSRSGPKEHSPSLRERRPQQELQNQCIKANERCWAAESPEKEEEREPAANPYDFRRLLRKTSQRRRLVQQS

[28] = target: Calcium/calmodulin-dependent protein kinase kinase 2 (Homo sapiens) (UniProt Q96RR4); test: Inhibition of CAMKK2 (unknown origin) assessed as remaining activity at 1 uM by Kinome scan method relative to control
Sequence of Calcium/calmodulin-dependent protein kinase kinase 2 (Homo sapiens) (Q96RR4 2-588 limits assumed): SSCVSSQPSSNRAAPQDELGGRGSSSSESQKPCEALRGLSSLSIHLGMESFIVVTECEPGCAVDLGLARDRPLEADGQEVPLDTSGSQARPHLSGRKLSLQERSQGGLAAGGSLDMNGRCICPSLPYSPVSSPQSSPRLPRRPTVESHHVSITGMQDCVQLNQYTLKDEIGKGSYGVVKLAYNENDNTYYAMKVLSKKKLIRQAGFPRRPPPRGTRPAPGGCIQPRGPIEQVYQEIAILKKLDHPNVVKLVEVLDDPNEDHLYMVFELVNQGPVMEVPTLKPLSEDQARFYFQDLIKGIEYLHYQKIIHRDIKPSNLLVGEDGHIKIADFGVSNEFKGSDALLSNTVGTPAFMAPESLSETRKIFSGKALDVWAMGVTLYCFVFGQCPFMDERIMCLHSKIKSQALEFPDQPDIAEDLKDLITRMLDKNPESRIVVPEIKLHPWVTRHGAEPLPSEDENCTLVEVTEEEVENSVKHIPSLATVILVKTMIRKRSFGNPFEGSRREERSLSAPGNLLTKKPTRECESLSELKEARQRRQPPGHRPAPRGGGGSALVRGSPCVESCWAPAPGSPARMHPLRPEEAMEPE

[29] = target: Tyrosine-protein kinase Fgr (Homo sapiens) (UniProt P09769); test: Inhibition of human FGR assessed as residual activity at 1 uM using polyEY as substrate in presence of 33P-ATP by ProQinase assay relative to control
Sequence of Tyrosine-protein kinase Fgr (Homo sapiens) (P09769 2-529 limits assumed): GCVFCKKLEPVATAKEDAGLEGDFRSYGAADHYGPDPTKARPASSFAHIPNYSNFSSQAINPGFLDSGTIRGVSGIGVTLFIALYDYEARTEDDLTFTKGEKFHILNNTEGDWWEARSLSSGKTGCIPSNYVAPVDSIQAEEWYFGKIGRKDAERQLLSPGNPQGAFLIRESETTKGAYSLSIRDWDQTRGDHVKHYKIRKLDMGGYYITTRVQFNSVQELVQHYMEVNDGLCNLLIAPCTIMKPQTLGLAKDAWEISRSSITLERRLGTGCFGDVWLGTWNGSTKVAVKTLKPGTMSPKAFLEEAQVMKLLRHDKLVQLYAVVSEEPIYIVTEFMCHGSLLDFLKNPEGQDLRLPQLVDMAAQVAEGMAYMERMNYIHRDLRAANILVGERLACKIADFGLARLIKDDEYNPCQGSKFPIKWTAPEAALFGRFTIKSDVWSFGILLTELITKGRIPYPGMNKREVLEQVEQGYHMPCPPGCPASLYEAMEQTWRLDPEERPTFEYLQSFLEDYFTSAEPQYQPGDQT

With `O=C1c2ccc(Nc3ccc(F)cc3F)cc2CCc2ccc(OC[C@H](O)CO)cc21` [Skepinone-L] the Activity [1] was 99%, the Activity [2] was 100% and the Activity [3] was 100%. The Activity [4] was 98%, the Activity [5] was 92% and the Activity [6] was 100%. It also gave an Activity [7] of 93%, an Activity [8] of 106% and an Activity [9] of 93%. It also gave an Activity [10] of 88%, an Activity [11] of 100% and an IC50 [12] of 370 nM. For the same compound, the Activity [13] was 90%, the Activity [14] was 100% and the inhibition at 10 µM [15] was -19%. It also gave an Activity [16] of 109%, an Activity [17] of 100% and an Activity [18] of 100%. It also gave an Activity [19] of 94%, an Activity [20] of 100% and an Activity [21] of 90%. The Activity [22] was 98%, the Activity [23] was 89% and the Activity [24] was 86%. The Activity [25] was 93%, the Activity [26] was 93% and the Activity [27] was 89%. The Activity [28] was 98% and the Activity [29] was 100%.
